From patent US20250011299A1, “PYRIDAZINYL AMINO DERIVATIVES AS ALK5 INHIBITORS” (CHIESI FARMACEUTICI S.P.A., priority 2021, published 2025) come the findings set out here.

SMILES strings stand for the structures.

For the test, the target named is T1, human ALK5 (Homo sapiens, UniProt P36897).
T1 construct: human ALK5 (recombinant TGF β1 N-term GST-tagged, 80-end); GST (N); purchased
T1 sequence (P36897 80-503 limits assumed): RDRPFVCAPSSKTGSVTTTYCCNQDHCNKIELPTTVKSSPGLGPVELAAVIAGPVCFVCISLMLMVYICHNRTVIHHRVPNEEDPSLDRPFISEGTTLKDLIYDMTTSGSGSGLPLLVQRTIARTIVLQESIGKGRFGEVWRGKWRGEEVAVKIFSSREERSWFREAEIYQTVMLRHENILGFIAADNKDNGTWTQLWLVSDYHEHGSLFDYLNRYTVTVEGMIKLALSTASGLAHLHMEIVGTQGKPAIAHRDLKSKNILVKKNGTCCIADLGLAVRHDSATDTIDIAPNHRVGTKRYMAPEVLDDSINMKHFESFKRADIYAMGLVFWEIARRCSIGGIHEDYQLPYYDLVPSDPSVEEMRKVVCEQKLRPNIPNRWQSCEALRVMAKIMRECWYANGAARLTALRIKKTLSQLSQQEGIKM
Description: ADP-GLO Kinases assay of ALK5 enzymatic activity. In kind it is biochemical. Conditions: purified recombinant human ALK5, TGFβ1 peptide substrate, pIC50 converted to pKi by Cheng-Prusoff, high ATP protocol (15 μM) for very potent compounds, 25° C. In outline:
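Purified ALK5 preincubated 15 min with compound, then reacted with substrate and ATP; ADP formed read by ADP-Glo luminescence after 120 min or 60 min reaction, all steps at 25° C. 11-point concentration-response; pIC50 converted to pKi via Cheng-Prusoff.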
A general note: ADP-Glo turns the ADP formed in a reaction into a luminescent signal.
The term Ki denotes a dissociation constant, usually derived from enzyme kinetics or from competition with a known ligand. As to `CN1CCN(CCC(=O)Nc2cc(Nc3cc(-c4cc(Cl)ccc4F)nnc3SCCOCCO)ccn2)CC1` [Example 194, N-(4-{[6-(5-chloro-2-fluorophenyl)-3-{[2-(2-hydroxyethoxy)ethyl]sulfanyl}pyridazin-4-yl]amino}pyridin-2-yl)-3-(4-methylpiperazin-1-yl)propanamide], the Ki is no more than 0.1 nM.
To `CN1CCN(CCC(=O)Nc2cc(Nc3cc(-c4cc(Cl)ccc4F)nnc3N(C)CC3(C)CCOC3=O)ncn2)CC1` (racemic) [Example 137, N-(6-{[6-(5-chloro-2-fluorophenyl)-3-{methyl[(3-methyl-2-oxooxolan-3-yl)methyl]amino}pyridazin-4-yl]amino}pyrimidin-4-yl)-3-(4-methylpiperazin-1-yl)propanamide] belongs no more than 0.1 nM.
To `COC(=O)C1CN(CC(=O)Nc2cc(Nc3cc(-c4cc(Cl)ccc4F)nnc3OCCN(C)C)ccn2)CCN1C` (stereo not drawn) [Example 12, methyl 4-{[(4-{[6-(5-chloro-2-fluorophenyl)-3-[2-(dimethylamino)ethoxy]pyridazin-4-yl]amino}pyridin-2-yl)carbamoyl]methyl}-1-methylpiperazine-2-carboxylate] belongs 0.126 to 0.316 nM; to `CN1CCN(CCC(=O)Nc2cc(Nc3cc(-c4cc(Cl)ccc4F)nnc3N3CC(C(=O)O)C3)ccn2)CC1` [Example 99, 1-[6-(5-chloro-2-fluorophenyl)-4-({2-[3-(4-methylpiperazin-1-yl)propanamido]pyridin-4-yl}amino)pyridazin-3-yl]azetidine-3-carboxylic acid], 0.126 to 0.316 nM.
In the case of `C[C@@H]1CN(CCC(=O)Nc2cc(Nc3cc(-c4cc(Cl)ccc4F)nnc3SCCO)ncn2)C[C@H](C)N1` [Example 177, N-(6-{[6-(5-chloro-2-fluorophenyl)-3-[(2-hydroxyethyl)sulfanyl]pyridazin-4-yl]amino}pyrimidin-4-yl)-3-(3,5-dimethylpiperazin-1-yl)propanamide], the Ki was no more than 0.1 nM.
To `CN1CCN(CCC(=O)Nc2cc(Nc3cc(-c4cc(Cl)ccc4F)nnc3N(C)[C@@H]3CCOC3)ccn2)CC1` (single isomer, unassigned) [Example 107, N-(4-{[6-(5-chloro-2-fluorophenyl)-3-[methyl(oxolan-3-yl)amino]pyridazin-4-yl]amino}pyridin-2-yl)-3-(4-methylpiperazin-1-yl)propanamide] belongs no more than 0.1 nM.
For `CN1C[C@@H]2C[C@H]1CN2CC(=O)Nc1cc(Nc2cc(-c3cc(Cl)ccc3F)nnc2OCc2cccc(O)c2)ccn1` [Example 120, N-(4-{[6-(5-chloro-2-fluorophenyl)-3-[(3-hydroxyphenyl)methoxy]pyridazin-4-yl]amino}pyridin-2-yl)-2-[(1S,4S)-5-methyl-2,5-diazabicyclo[2.2.1]heptan-2-yl]acetamide], the Ki is no more than 0.1 nM.
Turning to `CN1CCN(CCC(=O)Nc2cc(Nc3cc(-c4cc(Cl)ccc4F)nnc3S)ccn2)CC1` [Example 179, N-(4-{[6-(5-chloro-2-fluorophenyl)-3-sulfanylpyridazin-4-yl]amino}pyridin-2-yl)-3-(4-methylpiperazin-1-yl)propanamide], the Ki was 0.126 to 0.316 nM.
As to `CN1CCN(CCC(=O)Nc2cc(Nc3cc(-c4cc(Cl)ccc4F)nnc3N(C)CC3(C)CCOC3=O)ccn2)CC1` (single isomer, unassigned) [Example 128, N-(4-{[6-(5-chloro-2-fluorophenyl)-3-{methyl[(3-methyl-2-oxooxolan-3-yl)methyl]amino}pyridazin-4-yl]amino}pyridin-2-yl)-3-(4-methylpiperazin-1-yl)propanamide], the Ki was no more than 0.1 nM.
For `CN1CCN([C@H]2C[C@@H](C(=O)Nc3cc(Nc4cc(-c5cc(Cl)ccc5F)nnc4N(C)CC4(C)CCOC4=O)ncn3)C2)CC1` (single isomer, unassigned; enantiomer 2) [Example 144, Cis Enantiomer 2 N-(6-{[6-(5-chloro-2-fluorophenyl)-3-{methyl[(3-methyl-2-oxooxolan-3-yl)methyl]amino}pyridazin-4-yl]amino}pyrimidin-4-yl)-3-(4-methylpiperazin-1-yl)cyclobutane-1-carboxamide], the Ki is no more than 0.1 nM.
With `COC(=O)c1cc2c(Nc3cc(-c4cc(Cl)ccc4F)nnc3OCCC[N+](C)(C)C)ccnc2[nH]1` [Example 11, (3-{[6-(5-chloro-2-fluorophenyl)-4-{[2-(methoxycarbonyl)-1H-pyrrolo[2,3-b]pyridin-4-yl]amino}pyridazin-3-yl]oxy}propyl)trimethylazanium chloride], the Ki is 0.398 to 3.16 nM.
Consider `CN1CCC(COC(=O)c2cccc(CSc3nnc(-c4cc(Cl)ccc4F)cc3Nc3ccnc4[nH]ccc34)c2)CC1` [Example 206, (1-methylpiperidin-4-yl)methyl 3-({[6-(5-chloro-2-fluorophenyl)-4-({1H-pyrrolo[2,3-b]pyridin-4-yl}amino)pyridazin-3-yl]sulfanyl}methyl)benzoate], for which the Ki was 0.126 to 0.316 nM.
To `COc1nnc(-c2cc(Cl)ccc2F)cc1Nc1ccc2ncsc2c1` [Example C1, [6-(5-Chloro-2-fluorophenyl)-3-methoxypyridazin-4-yl]-1,3-benzothiazol-6-amine, reference compound] belongs 6.31 nM.
As for `O=C(Nc1cc(Nc2cc(-c3cc(Cl)ccc3F)nnc2SCCO)ccn1)[C@H]1C[C@@H](N2CCN(C3CC3)CC2)C1` [Example 160, Cis N-(4-{[6-(5-chloro-2-fluorophenyl)-3-[(2-hydroxyethyl)sulfanyl]pyridazin-4-yl]amino}pyridin-2-yl)-3-(4-cyclopropylpiperazin-1-yl)cyclobutane-1-carboxamide], the Ki was no more than 0.1 nM.
Take `CN1CCN(CCC(=O)Nc2cc(Nc3cc(-c4cc(Cl)ccc4F)nnc3SCCCO)ccn2)CC1` [Example 28, N-(4-{[6-(5-chloro-2-fluorophenyl)-3-[(3-hydroxypropyl)sulfanyl]pyridazin-4-yl]amino}pyridin-2-yl)-3-(4-methylpiperazin-1-yl)propanamide]: the Ki was no more than 0.1 nM.
For `CN1CCN(CCC(=O)Nc2cc(Nc3cc(-c4cc(Cl)ccc4F)nnc3SCC3(C)CCOC3=O)ccn2)CC1` (stereo not drawn) [Example 197, N-(4-{[6-(5-chloro-2-fluorophenyl)-3-{[(3-methyl-2-oxooxolan-3-yl)methyl]sulfanyl}pyridazin-4-yl]amino}pyridin-2-yl)-3-(4-methylpiperazin-1-yl)propanamide] the value was 0.126 to 0.316 nM; for `CS(=O)(=O)NCCOc1nnc(-c2cc(Cl)ccc2F)cc1Nc1ccnc(N)c1` [Example 45, N-[2-({4-[(2-aminopyridin-4-yl)amino]-6-(5-chloro-2-fluorophenyl)pyridazin-3-yl}oxy)ethyl]methanesulfonamide], no more than 0.1 nM; for `CN1CCC2(CCN(C(=O)Nc3cc(Nc4cc(-c5cc(Cl)ccc5F)nnc4SCCO)ccn3)CC2)C1` [Example 26, N-(4-{[6-(5-chloro-2-fluorophenyl)-3-[(2-hydroxyethyl)sulfanyl]pyridazin-4-yl]amino}pyridin-2-yl)-2-methyl-2,8-diazaspiro[4.5]decane-8-carboxamide], no more than 0.1 nM.
Take `CN1CCN(CCOc2ccc3c(Nc4cc(-c5cc(Cl)ccc5F)nnc4OCC(F)F)ccnc3c2)CC1` [Example 3, N-[6-(5-chloro-2-fluorophenyl)-3-(2,2-difluoroethoxy)pyridazin-4-yl]-7-[2-(4-methylpiperazin-1-yl)ethoxy]quinolin-4-amine]: the Ki is no more than 0.1 nM.
As to `CN1CCN(CCC(=O)Nc2cc(Nc3cc(-c4cc(Cl)ccc4F)nnc3OCCNS(C)(=O)=O)ccn2)CC1` [Example 9, N-(4-{[6-(5-chloro-2-fluorophenyl)-3-(2-methanesulfonamidoethoxy)pyridazin-4-yl]amino}pyridin-2-yl)-3-(4-methylpiperazin-1-yl)propanamide], the Ki is no more than 0.1 nM.
To `CN1C[C@@H]2C[C@H]1CN2[C@H]1C[C@H](C(=O)Nc2cc(Nc3cc(-c4cc(Cl)ccc4F)nnc3SCCO)ccn2)C1` [Example 88, Trans N-(4-{[6-(5-chloro-2-fluorophenyl)-3-[(2-hydroxyethyl)sulfanyl]pyridazin-4-yl]amino}pyridin-2-yl)-3-[(1S,4S)-5-methyl-2,5-diazabicyclo[2.2.1]heptan-2-yl]cyclobutane-1-carboxamide] belongs no more than 0.1 nM.
